# Tested on: 328373-195-R-J1-PDC complex spheroids, viability % test/control
# Test: Anticancer human tumor 328373-195-R-J1-PDC patient-derived head and neck squamous carcinoma cell line growth inhibition [CLK]
# Settings: for IC50: curve of first compound; for viability, T/C: stronger effect = lower value
# Outline: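 Multi-cell-type spheroids combined patient-derived tumor cells with HUVEC endothelial cells and human mesenchymal stem cells. Paired agents were dosed in half-log steps down from about clinical Cmax, or from 10 microM where Cmax was unknown.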
# [1] = second compound 0.0316 µM, first compound 0.0316 µM
# [2] = second compound 0.0316 µM, first compound 0.1 µM
# [3] = second compound 0.0316 µM, first compound 0.316 µM
# [4] = second compound 0.0316 µM, first compound 1 µM
# [5] = second compound 0.0316 µM, first compound 3.16 µM
# [6] = second compound 0.0316 µM, first compound 10 µM
# [7] = second compound 0.1 µM, first compound 0.0316 µM
# [8] = second compound 0.1 µM, first compound 0.1 µM
# [9] = second compound 0.1 µM, first compound 0.316 µM
# [10] = second compound 0.1 µM, first compound 1 µM
# [11] = second compound 0.1 µM, first compound 3.16 µM
# [12] = second compound 0.1 µM, first compound 10 µM
# [13] = second compound 0.316 µM, first compound 0.0316 µM
# [14] = second compound 0.316 µM, first compound 0.1 µM
# [15] = second compound 0.316 µM, first compound 0.316 µM
# [16] = second compound 0.316 µM, first compound 1 µM
# [17] = second compound 0.316 µM, first compound 3.16 µM
# [18] = second compound 0.316 µM, first compound 10 µM
# [19] = second compound 1 µM, first compound 0.0316 µM
# [20] = second compound 1 µM, first compound 0.1 µM
# [21] = second compound 1 µM, first compound 0.316 µM
# [22] = second compound 1 µM, first compound 1 µM
# [23] = second compound 1 µM, first compound 3.16 µM
# [24] = second compound 1 µM, first compound 10 µM
# [25] = second compound 3.16 µM, first compound 0.0316 µM
# [26] = second compound 3.16 µM, first compound 0.1 µM
# [27] = second compound 3.16 µM, first compound 0.316 µM
# [28] = second compound 3.16 µM, first compound 1 µM
# [29] = second compound 3.16 µM, first compound 3.16 µM
# [30] = second compound 3.16 µM, first compound 10 µM
# [31] = second compound 10 µM, first compound 0.0316 µM
# [32] = second compound 10 µM, first compound 0.1 µM
# [33] = second compound 10 µM, first compound 0.316 µM
# [34] = second compound 10 µM, first compound 1 µM
# [35] = second compound 10 µM, first compound 3.16 µM
# [36] = second compound 10 µM, first compound 10 µM
# 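Further: spheroids exposed to the agents for 7 days.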
smiles,measurement,setting,value
CC1COCCN1c1cc(C2(S(C)(=N)=O)CC2)nc(-c2ccnc3[nH]ccc23)n1 (stereo unspecified) + CN1CCN(c2cc(C(=O)Nc3cc4cc(-c5cnn(C)c5)ccc4cn3)ccn2)CC1,IC50,second compound 0.0316 µM,1660 nM
same,IC50,second compound 0.1 µM,1150 nM
same,IC50,second compound 0.316 µM,< 31.6 nM
same,IC50,second compound 1 µM,< 31.6 nM
same,IC50,second compound 3.16 µM,< 31.6 nM
same,IC50,second compound 10 µM,< 31.6 nM
same,"viability, T/C",[1],95.4%
same,"viability, T/C",[2],96.6%
same,"viability, T/C",[3],88.2%
same,"viability, T/C",[4],69.3%
same,"viability, T/C",[5],25.9%
same,"viability, T/C",[6],8.66%
same,"viability, T/C",[7],90.9%
same,"viability, T/C",[8],86.8%
same,"viability, T/C",[9],81.1%
same,"viability, T/C",[10],55.2%
same,"viability, T/C",[11],18%
same,"viability, T/C",[12],9.2%
same,"viability, T/C",[13],22.7%
same,"viability, T/C",[14],37.2%
same,"viability, T/C",[15],28.5%
same,"viability, T/C",[16],14.7%
same,"viability, T/C",[17],7.56%
same,"viability, T/C",[18],7.95%
same,"viability, T/C",[19],0.21%
same,"viability, T/C",[20],0.24%
same,"viability, T/C",[21],0.58%
same,"viability, T/C",[22],0.22%
same,"viability, T/C",[23],2.35%
same,"viability, T/C",[24],2.29%
same,"viability, T/C",[25],2.09%
same,"viability, T/C",[26],0.12%
same,"viability, T/C",[27],0.16%
same,"viability, T/C",[28],0.14%
same,"viability, T/C",[29],1.51%
same,"viability, T/C",[30],3.51%
same,"viability, T/C",[31],0.14%
same,"viability, T/C",[32],1.61%
same,"viability, T/C",[33],1.87%
same,"viability, T/C",[34],1.76%
same,"viability, T/C",[35],1.92%
same,"viability, T/C",[36],2.57%
NC(=O)C(=Cn1cnc(-c2cc(C(F)(F)F)cc(C(F)(F)F)c2)n1)c1cncnc1 + CN1CCN(c2cc(C(=O)Nc3cc4cc(-c5cnn(C)c5)ccc4cn3)ccn2)CC1,IC50,second compound 0.0316 µM,21.5 nM
same,IC50,second compound 0.1 µM,12.8 nM
same,IC50,second compound 0.316 µM,< 9.49 nM
same,IC50,second compound 1 µM,< 9.49 nM
same,IC50,second compound 3.16 µM,< 9.49 nM
same,IC50,second compound 10 µM,< 9.49 nM
same,"viability, T/C","second compound 0.0316 µM, first compound 0.00949 µM",78.8%
same,"viability, T/C","second compound 0.0316 µM, first compound 0.03 µM",38.3%
same,"viability, T/C","second compound 0.0316 µM, first compound 0.0949 µM",1.11%
same,"viability, T/C","second compound 0.0316 µM, first compound 0.3 µM",0.32%
same,"viability, T/C","second compound 0.0316 µM, first compound 0.949 µM",0.14%
same,"viability, T/C","second compound 0.0316 µM, first compound 3 µM",1.38%
same,"viability, T/C","second compound 0.1 µM, first compound 0.00949 µM",56.7%
same,"viability, T/C","second compound 0.1 µM, first compound 0.03 µM",31.2%
same,"viability, T/C","second compound 0.1 µM, first compound 0.0949 µM",0.33%
same,"viability, T/C","second compound 0.1 µM, first compound 0.3 µM",0.56%
same,"viability, T/C","second compound 0.1 µM, first compound 0.949 µM",0.08%
same,"viability, T/C","second compound 0.1 µM, first compound 3 µM",3.54%
same,"viability, T/C","second compound 0.316 µM, first compound 0.00949 µM",13.3%
same,"viability, T/C","second compound 0.316 µM, first compound 0.03 µM",1.99%
same,"viability, T/C","second compound 0.316 µM, first compound 0.0949 µM",1.27%
same,"viability, T/C","second compound 0.316 µM, first compound 0.3 µM",0.99%
same,"viability, T/C","second compound 0.316 µM, first compound 0.949 µM",0.07%
same,"viability, T/C","second compound 0.316 µM, first compound 3 µM",1.88%
same,"viability, T/C","second compound 1 µM, first compound 0.00949 µM",0.09%
same,"viability, T/C","second compound 1 µM, first compound 0.03 µM",0.12%
same,"viability, T/C","second compound 1 µM, first compound 0.0949 µM",2.09%
same,"viability, T/C","second compound 1 µM, first compound 0.3 µM",1.38%
same,"viability, T/C","second compound 1 µM, first compound 0.949 µM",2.09%
same,"viability, T/C","second compound 1 µM, first compound 3 µM",0.22%
same,"viability, T/C","second compound 3.16 µM, first compound 0.00949 µM",0.24%
same,"viability, T/C","second compound 3.16 µM, first compound 0.03 µM",1.6%
same,"viability, T/C","second compound 3.16 µM, first compound 0.0949 µM",0.1%
same,"viability, T/C","second compound 3.16 µM, first compound 0.3 µM",1.06%
same,"viability, T/C","second compound 3.16 µM, first compound 0.949 µM",0.12%
same,"viability, T/C","second compound 3.16 µM, first compound 3 µM",1.99%
same,"viability, T/C","second compound 10 µM, first compound 0.00949 µM",1.81%
same,"viability, T/C","second compound 10 µM, first compound 0.03 µM",0.08%
same,"viability, T/C","second compound 10 µM, first compound 0.0949 µM",0.93%
same,"viability, T/C","second compound 10 µM, first compound 0.3 µM",0.14%
same,"viability, T/C","second compound 10 µM, first compound 0.949 µM",1.29%
same,"viability, T/C","second compound 10 µM, first compound 3 µM",0.16%
CC(Nc1ccc2c(c1)OCCn1cc(N3C(=O)OCC3C(F)F)nc1-2)C(N)=O (stereo unspecified) + CNC(=O)c1ccc(Nc2nc(OC3CCCC3)c3c(-c4ccc5nc(C)oc5c4)c[nH]c3n2)c(OC)c1,IC50,second compound 0.0316 µM,5300 nM
same,IC50,second compound 0.1 µM,< 31.6 nM
same,IC50,second compound 0.316 µM,< 31.6 nM
same,IC50,second compound 1 µM,< 31.6 nM
same,IC50,second compound 3.16 µM,< 31.6 nM
same,IC50,second compound 10 µM,< 31.6 nM
same,"viability, T/C",[1],64.5%
same,"viability, T/C",[2],63%
same,"viability, T/C",[3],56.1%
same,"viability, T/C",[4],61.7%
same,"viability, T/C",[5],57%
same,"viability, T/C",[6],41.6%
same,"viability, T/C",[7],12.4%
same,"viability, T/C",[8],12.9%
same,"viability, T/C",[9],11.3%
same,"viability, T/C",[10],13.8%
same,"viability, T/C",[11],10.4%
same,"viability, T/C",[12],10.2%
same,"viability, T/C",[13],10.3%
same,"viability, T/C",[14],11%
same,"viability, T/C",[15],12.6%
same,"viability, T/C",[16],9.39%
same,"viability, T/C",[17],9.16%
same,"viability, T/C",[18],11.8%
same,"viability, T/C",[19],12%
same,"viability, T/C",[20],10.1%
same,"viability, T/C",[21],9.86%
same,"viability, T/C",[22],10.9%
same,"viability, T/C",[23],10.3%
same,"viability, T/C",[24],10.2%
same,"viability, T/C",[25],11.7%
same,"viability, T/C",[26],11%
same,"viability, T/C",[27],11.4%
same,"viability, T/C",[28],8.89%
same,"viability, T/C",[29],13.5%
same,"viability, T/C",[30],8.5%
same,"viability, T/C",[31],11.8%
same,"viability, T/C",[32],11.6%
same,"viability, T/C",[33],10.7%
same,"viability, T/C",[34],11.9%
same,"viability, T/C",[35],13.7%
same,"viability, T/C",[36],11%

# Reference: PubChem BioAssay AID2060620 (Molecular Pharmacology Branch, DTP, NCI, 2025)
